Measured values as given in the CATMoS acute toxicity set (Mansouri et al. 2021).

Assay: GHS categories as the set defines them, by LD50: 1 up to 5, 2 up to 50, 3 up to 300, 4 up to 2000, 5 above 2000 mg/kg
Conditions: rat; in vivo; po

| SMILES | GHS category |
| --- | --- |
| CCCCl | 5 |
| CCCC(CCC)C(=O)Oc1ccccc1OC | 5 |
| NC(=O)[C@@H]1C[C@]2(NC(=O)NC2=O)c2cc(F)ccc2O1 | 5 |
| NC(=O)N=NC(N)=O | 5 |
| Cc1cc(C)nc(NC(=O)NS(=O)(=O)c2ccccc2C(=O)OC2COC2)n1 | 5 |
| CC(=O)c1ccc2cc(CC(=O)O)ccc2c1 | 5 |
| CCN(CC)c1nc2ccccn2c(=O)c1C=NN1CCOC1=O | 3 |
| CC(C)(O)C(=O)c1ccc(Cc2ccc(C(=O)C(C)(C)O)cc2)cc1 | 5 |
| CCN(C(=O)CCCCSc1nnnn1C)C1CCCCC1 | 4 |
| COc1cc(C(=O)OCc2cccc(COC(=O)c3cc(OC)c(OC)c(OC)c3)n2)cc(OC)c1OC | 5 |
| C=C1[C@H]2CC[C@@H]3[C@H]2C(C)(C)CCC[C@]13C | 5 |
| CCCCOC(=O)CCC(C)=O | 5 |
| CNC(=O)C(=NNc1ccc([N+](=O)[O-])cc1OC)C(C)=O | 5 |
| Clc1ccc(CSc2ccc(Cl)cc2)cc1 | 5 |
| CN(C)CCn1nnnc1SCC1=C(C(=O)O)N2C(=O)[C@@H](NC(=O)Cc3csc(N)n3)[C@H]2SC1 | 5 |
| CCCCCCCCCCC[C@@H]1C[C@H](O)[C@H](CCCCCC)C(=O)O1 | 5 |
| CC1CC(OC(=O)COc2cccc(C(F)(F)F)c2)CC(C)(C)C1 (centres undefined) | 5 |
| CCCC=CCC1CCCC1=O (centres undefined) | 5 |
| Cc1cc(C(=O)Nc2cccc(C(F)(F)F)c2)n[nH]1 | 5 |
| C/C=C/C(=O)OC | 5 |
| CC(=O)C(N=Nc1cccc(OCCOc2ccccc2N=NC(C(C)=O)C(=O)Nc2ccc3[nH]c(=O)[nH]c3c2)c1)C(=O)Nc1ccc2[nH]c(=O)[nH]c2c1 (centres undefined) | 5 |

| SMILES | GHS category |
| --- | --- |
| CC=Cc1ccc(OCCCCC)c(OC)c1 | 5 |
| CNc1ccc([N+](=O)[O-])cc1 | 5 |
| Cc1c(Cl)c(=O)oc2cc(OP(=O)(OCCCCCl)OCCCCCl)ccc12 | 3 |
| CNC(=O)c1sc(-c2ccc(OC)c(OC)c2)nc1C | 5 |
| FC(F)(F)c1cccc(C2=CCN(CCc3ccc4ccccc4c3)CC2)c1 | 4 |
| CCCCOC(=O)c1ccccc1OC(N)=O | 5 |
| CC(=O)OC(C)Cc1ccccc1 (centres undefined) | 5 |
| CO[C@@]1(NC(=O)Cc2cccs2)C(=O)N2C(C(=O)O)=C(COC(N)=O)CS[C@@H]21 | 5 |
| CCOC(=O)C(=O)Nc1cc(OC)nc(C)n1 | 4 |
| COC(=O)CC#N | 5 |
| CNC(=O)C(=NNc1ccc([N+](=O)[O-])cc1)C(C)=O | 5 |
| NC[C@@H]1CC[C@@H](N)[C@@H](O[C@H]2[C@H](O)[C@@H](O[C@H]3O[C@H](CO)[C@@H](O)[C@H](N)[C@H]3O)[C@H](N)C[C@@H]2N)O1 | 5 |
| O=C1CN=C(c2ccccc2Cl)c2cc([N+](=O)[O-])ccc2N1 | 5 |
| COC(=O)CCCCCCCCC(=O)OC | 5 |
| CN1C(=O)C(C)(C)Oc2cc(C(=O)c3ccccc3)ccc21 | 5 |
| Nc1cnn(CCO)c1N | 5 |
| CCOC(=O)C(=O)Nc1cc(OC)nc(-c2ccccc2)n1 | 4 |
| CCO[Si](CCCSSCCC[Si](OCC)(OCC)OCC)(OCC)OCC | 5 |
| CC(C)(c1ccccc1)c1cc(-n2nc3ccccc3n2)c(O)c(C(C)(C)c2ccccc2)c1 | 5 |
| CC(C)C[Si](Cl)(Cl)Cl | 3 |
| CCN(CCOC(C)=O)c1ccc(N=Nc2nc3ccc(Cl)cc3s2)cc1 | 5 |

| SMILES | GHS category |
| --- | --- |
| CCC(C)CCC(C)(O)CC (centres undefined) | 5 |
| CCc1cccc(C)c1Nc1ccc(Nc2c(C)cccc2CC)c2c1C(=O)c1ccccc1C2=O | 5 |
| O=C(O)C[C@H](NCCN[C@@H](CC(=O)O)C(=O)O)C(=O)O | 5 |
| CCc1cc(C)cc(CC)c1-c1c(OC(=O)C(C)(C)C)n2n(c1=O)CCOCC2 | 5 |
| CC(CC(C)(C)C)CC(C)(C)CC(C)(C)C (centres undefined) | 5 |
| CC(=O)c1ccc(Oc2ccc(Cl)cc2)cc1Cl | 5 |
| CCCCCCCN(CCCCCCC)CC(O)c1cc2ccccc2c2cc(Br)ccc12 (centres undefined) | 5 |
| CSc1nc2cc(Cl)ccc2o1 | 5 |
| NS(=O)(=O)c1cc(C2(O)NC(=O)c3ccccc32)ccc1Cl (centres undefined) | 5 |
| CCCCCCNC(=O)c1cnc2cccc(C)n2c1=O | 3 |
| O=C1C[N+]([O-])=C(c2ccccc2)c2cc(Cl)ccc2N1 | 5 |
| CCCCCCCCCCCCCCCCCCOC(=O)CCc1cc(C(C)(C)C)c(O)c(C(C)(C)C)c1 | 5 |
| CCN(C(=O)CCCCc1nnnn1-c1ccccc1)C1CCCCC1 | 4 |
| CCCCCCCCCCCCCC(=O)OCCCC | 5 |
| O=[N+]([O-])c1cccc(C=NOCc2cccc([N+](=O)[O-])c2)c1 | 4 |
| CC(C)CCCCCCCCCCCCCCC(=O)OC(C)C | 5 |
| C[C@@H]1C[C@@H](O)CC(C)(C)C1=O | 5 |
| CCN(CC)C(=O)CCSCc1nnnn1C | 4 |
| CCCCc1ccc2[nH]c(NC(=O)OC)nc2c1 | 2 |
| CCSP(=O)(SCC)SCC | 3 |
| CC1CCCCCCCCCCCCC(=O)C1 (centres undefined) | 5 |

| SMILES | GHS category |
| --- | --- |
| CC(=O)c1ccc2c(c1)OC(C)C(=O)N2C (centres undefined) | 5 |
| COC(=O)CCc1cc(-n2nc3ccccc3n2)c(O)c(C(C)(C)C)c1 | 5 |
| CN(c1ccccc1)S(=O)(=O)c1cc(O)c2c(N=Nc3ccc(NC(=O)CCl)cc3S(=O)(=O)O)c(N)ccc2c1 | 5 |
| COc1ccc(-c2ccc(C#N)cc2)cc1 | 5 |
| CCCCCCCC/C=C\CCCCCCCC(=O)OCC(C)(C)COC(=O)CCCCCCC/C=C\CCCCCCCC | 5 |
| c1ccc(CN(Cc2ccccc2)Sc2nc3ccccc3s2)cc1 | 5 |
| COc1ccc(C(=O)CC(=O)c2ccc(C(C)(C)C)cc2)cc1 | 5 |
| CC1C(C)(C)C2=C(C3OCOCC3CC2)C1(C)C (centres undefined) | 5 |
| COc1ccc(C2COc3ccccc3O2)cc1O (centres undefined) | 5 |
| CN(C)C1C(=O)C(=C(O)NCN2CCCC2C(=O)O)C(=O)C2(O)C(=O)C3=C(O)c4c(O)cccc4C(C)(O)C3CC12 (centres undefined) | 5 |
| COc1cc(OC)nc(NC(=O)NS(=O)(=O)c2ncccc2C(=O)N(C)C)n1 | 5 |
| N#CCN(CC#N)CCN(CC#N)CC#N | 5 |
| FC(F)CNCc1ccc(Cl)nc1 | 5 |
| CCCCCCCCCCCCCCCCCC(=O)OCC(COC(=O)CCCCCCCCCCCCCCCCC)OC(=O)CCCCCCCCCCCCCCCCC | 5 |
| CCCCCOc1ccc(-c2ccc(C#N)cc2)cc1 | 5 |
| CCC1OC(=O)C(C)C(OC2CC(C)(OC)C(O)C(C)O2)C(C)C(OC2OC(C)CC(N(C)C)C2O)C(C)(O)CC(C)(F)C(=O)C(C)C(O)C1(C)O (centres undefined) | 5 |
| CC(C)=CCN(CC=C(C)C)CCC(C#N)(c1cccc2ccccc12)C(C)C (centres undefined) | 4 |
| CC1=C(/C=C/C(C)=C/C=C/C(C)=C\C(=O)O)C(C)(C)CCC1 | 5 |
| OCC(O)COC1CCCCC1 (centres undefined) | 5 |
| O=C(Cn1cnnn1)N[C@@H]1C(=O)N2C(C(=O)O)=C(CSc3nncs3)CS[C@H]12 | 5 |
| O=C1CCCCCN1C(=O)NCCCCCCNC(=O)N1CCCCCC1=O | 5 |
